Test results published in the NIST ThermoML archive (doi:10.1021/je060271a).

Settings: 303.15 K, Liquid, Vibrating tube method

CCCCC(=O)OCC(COC(=O)CCCC)(COC(=O)CCCC)COC(=O)CCCC [pentaerythritol tetrapentanoate]
Settings | mass density [kg/m3]
2232.7 kPa | 1012.2
2240.1 kPa | 1012.3
2247.8 kPa | 1012.4
2256.6 kPa | 1012.3
2264.4 kPa | 1012.4
2272.4 kPa | 1012.3
2281.6 kPa | 1012.4
2289.2 kPa | 1012.3
2297.4 kPa | 1012.3
2305.2 kPa | 1012.3
2314.7 kPa | 1012.3
2322.9 kPa | 1012.2
2330.3 kPa | 1012.3
2339.9 kPa | 1012.4
2348.2 kPa | 1012.5
2356.9 kPa | 1012.5
2365.6 kPa | 1012.3
2373.5 kPa | 1012.5
2383.8 kPa | 1012.3
2391.9 kPa | 1012.4
2402.3 kPa | 1012.4
2411 kPa | 1012.3
2419.3 kPa | 1012.5
2429.4 kPa | 1012.4
2438.1 kPa | 1012.4
2446.9 kPa | 1012.4
2455.6 kPa | 1012.5
2464.8 kPa | 1012.4
2475.4 kPa | 1012.4
2484.4 kPa | 1012.5
2493.4 kPa | 1012.4
2504.2 kPa | 1012.4
2513.4 kPa | 1012.4
2522.4 kPa | 1012.5
2531.8 kPa | 1012.5
2543 kPa | 1012.6
2552.4 kPa | 1012.5
2561.7 kPa | 1012.5
2573.2 kPa | 1012.4
2582.7 kPa | 1012.6
2592.3 kPa | 1012.5
2601.8 kPa | 1012.5
2613.6 kPa | 1012.6
2623.2 kPa | 1012.5
2632.7 kPa | 1012.5
2642.9 kPa | 1012.6
2654.9 kPa | 1012.6
2664.6 kPa | 1012.5
2676.8 kPa | 1012.5
2686.8 kPa | 1012.6
2697.2 kPa | 1012.6
2707.4 kPa | 1012.6
2719.9 kPa | 1012.6
2730.3 kPa | 1012.6
2740.9 kPa | 1012.6
2751.7 kPa | 1012.5
2764.8 kPa | 1012.6
2775.1 kPa | 1012.6
2785.8 kPa | 1012.7
2799.2 kPa | 1012.6
2810.1 kPa | 1012.7
2820.9 kPa | 1012.7
2833.5 kPa | 1012.7
2844.6 kPa | 1012.7
2855.9 kPa | 1012.6
2869.2 kPa | 1012.7
2880.7 kPa | 1012.7
2892.5 kPa | 1012.8
2904.8 kPa | 1012.8
2916.2 kPa | 1012.6
2930.1 kPa | 1012.7
2941.7 kPa | 1012.8
2953.3 kPa | 1012.8
2967.4 kPa | 1012.8
2979.5 kPa | 1012.7
2991.5 kPa | 1012.8
3006.1 kPa | 1012.7
3018.4 kPa | 1012.8
3030.5 kPa | 1012.7
3043.3 kPa | 1012.8
3058.9 kPa | 1012.8
3070.7 kPa | 1012.9
3083.2 kPa | 1012.8
3096 kPa | 1012.8
3108.7 kPa | 1012.8
3123.9 kPa | 1012.9
3136.6 kPa | 1012.8
3149.9 kPa | 1013
3165.5 kPa | 1012.9
3179.1 kPa | 1013
3192.6 kPa | 1012.9
3205.9 kPa | 1012.9
3222.1 kPa | 1012.9
3236.3 kPa | 1012.9
3249.8 kPa | 1012.8
3263.8 kPa | 1013
3280.5 kPa | 1013
3294.2 kPa | 1013
3310.8 kPa | 1013
3324.8 kPa | 1013
3339.2 kPa | 1013.1
3353.6 kPa | 1013
3368.2 kPa | 1013
3385.5 kPa | 1013
3400.2 kPa | 1013.1
3415.1 kPa | 1013.1
3433 kPa | 1013.1
3448.4 kPa | 1012.9
3463.3 kPa | 1013.1
3478.2 kPa | 1013.1
3496.8 kPa | 1013.2
3512 kPa | 1013
3527.8 kPa | 1013.1
3546.5 kPa | 1013.2
3562.5 kPa | 1013.1
3578.4 kPa | 1013.2
3594 kPa | 1013.2
3613.4 kPa | 1013.2
3630 kPa | 1013
3646.7 kPa | 1013.2
3663.3 kPa | 1013.1
3683.1 kPa | 1013.2
3699.3 kPa | 1013.2
3716.7 kPa | 1013.2
3734 kPa | 1013.3
3753.9 kPa | 1013.3
3771.2 kPa | 1013.3
3789.1 kPa | 1013.3
3806.2 kPa | 1013.3
3827.7 kPa | 1013.4
3845.4 kPa | 1013.4
3863.8 kPa | 1013.3
3881.9 kPa | 1013.3
3903.9 kPa | 1013.3
3927.5 kPa | 1013.3
4003.7 kPa | 1013.4
4122.2 kPa | 1013.5
4149.2 kPa | 1013.6
4165.7 kPa | 1013.5
4185.8 kPa | 1013.5
4202.9 kPa | 1013.6
4220.2 kPa | 1013.5
4238.1 kPa | 1013.5
4257.1 kPa | 1013.5
4275.3 kPa | 1013.5
4293.5 kPa | 1013.7
4311 kPa | 1013.6
4333.3 kPa | 1013.7
4464.7 kPa | 1013.8
4605.8 kPa | 1013.8
4684.8 kPa | 1013.8
4702.2 kPa | 1013.9
4719.7 kPa | 1014
4737.5 kPa | 1013.9
4776.3 kPa | 1013.9
4798.6 kPa | 1013.9
4817.1 kPa | 1014
4836 kPa | 1013.9
4855.9 kPa | 1014
4875 kPa | 1013.9
4897.8 kPa | 1014.2
